Key:
Type in all cases: cell-based, human
[1] = test system: hTERT promoter (PhTERT) expression; experiment: SEAP assay (PhTERT-SEAP reporter, H1299); settings: Homo sapiens, NCI-H1299, PhTERT-SEAP (H1299)
Method in brief: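 Stable H1299 clones carrying the hTERT promoter (−3338 to +1) driving SEAP were treated with varying drug amounts for 24 h at 37° C. Heat-treated media (65° C, 10 min) were assayed with 12 mM p-nitrophenyl phosphate in diethanolamine buffer; rate of A405 increase gave SEAP activity.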

BT-549 = experiment: NCI 60-cell drug screen, one dose; settings: Breast Cancer BT-549, 1.00E−5 Molar
Method: (§1) In brief, cellular protein levels were determined after 48 hours of drug exposure by sulforhodamine B colorimetry.
(§2) The screening system in United State National Cancer Institute (NCI) consists of 60 kinds of different human cancer cells, which can be used to assay the growth-inhibiting ability or cell toxicity of a compound against various cancer and tumor at a certain concentration. The NCI had selected 6 compounds synthesized above, and performed cell toxicity assay against 60 kinds of cancer cell strains (Table 2) (DTP Human Tumor Cell Line Screen), in which each compound was assayed at a certain concentration to observe its inhibition ability or cell toxicity against various kinds of cancer and tumor.

HT29 = experiment: NCI 60-cell drug screen, one dose; settings: Colon Cancer HT29, 1.00E−5 Molar
Method: as §1, §2

EKVX = experiment: NCI 60-cell drug screen, one dose; settings: Non-Small Cell Lung Cancer EKVX, 1.00E−5 Molar
Method: as §1, §2

SF-539 = experiment: NCI 60-cell drug screen, one dose; settings: CNS Cancer SF-539, 1.00E−5 Molar
Method: as §1, §2

SK-MEL-28 = experiment: NCI 60-cell drug screen, one dose; settings: Melanoma SK-MEL-28, 1.00E−5 Molar
Method: as §1, §2

HOP-62 = experiment: NCI 60-cell drug screen, one dose; settings: Non-Small Cell Lung Cancer HOP-62, 1.00E−5 Molar
Method: as §1, §2

COLO 205 = experiment: NCI 60-cell drug screen, one dose; settings: Colon Cancer COLO 205, 1.00E−5 Molar
Method: as §1, §2

MDA-MB-435 = experiment: NCI 60-cell drug screen, one dose; settings: Melanoma MDA-MB-435, 1.00E−5 Molar
Method: as §1, §2

786-0 = experiment: NCI 60-cell drug screen, one dose; settings: Renal Cancer 786-0, 1.00E−5 Molar
Method: as §1, §2

NCI-H522 = experiment: NCI 60-cell drug screen, one dose; settings: Non-Small Cell Lung Cancer NCI-H522, 1.00E−5 Molar
Method: as §1, §2

U251 = experiment: NCI 60-cell drug screen, one dose; settings: CNS Cancer U251, 1.00E−5 Molar
Method: as §1, §2

SK-MEL-2 = experiment: NCI 60-cell drug screen, one dose; settings: Melanoma SK-MEL-2, 1.00E−5 Molar
Method: as §1, §2

HS 578-T = experiment: NCI 60-cell drug screen, one dose; settings: Breast Cancer HS 578-T, 1.00E−5 Molar
Method: as §1, §2

SN12C = experiment: NCI 60-cell drug screen, one dose; settings: Renal Cancer SN12C, 1.00E−5 Molar
Method: as §1, §2

SNB-19 = experiment: NCI 60-cell drug screen, one dose; settings: CNS Cancer SNB-19, 1.00E−5 Molar
Method: as §1, §2

NCI-H23 = experiment: NCI 60-cell drug screen, one dose; settings: Non-Small Cell Lung Cancer NCI-H23, 1.00E−5 Molar
Method: as §1, §2

OVCAR-3 = experiment: NCI 60-cell drug screen, one dose; settings: Ovarian Cancer OVCAR-3, 1.00E−5 Molar
Method: as §1, §2

OVCAR-4 = experiment: NCI 60-cell drug screen, one dose; settings: Ovarian Cancer OVCAR-4, 1.00E−5 Molar
Method: as §1, §2

LOX IMVI = experiment: NCI 60-cell drug screen, one dose; settings: Melanoma LOX IMVI, 1.00E−5 Molar
Method: as §1, §2

HL-60(TB) = experiment: NCI 60-cell drug screen, one dose; settings: Leukemia HL-60(TB), 1.00E−5 Molar
Method: as §1, §2

TK-10 = experiment: NCI 60-cell drug screen, one dose; settings: Renal Cancer TK-10, 1.00E−5 Molar
Method: as §1, §2

SK-OV-3 = experiment: NCI 60-cell drug screen, one dose; settings: Ovarian Cancer SK-OV-3, 1.00E−5 Molar
Method: as §1, §2

NCI-H322M = experiment: NCI 60-cell drug screen, one dose; settings: Non-Small Cell Lung Cancer NCI-H322M, 1.00E−5 Molar
Method: as §1, §2

NCI-H226 = experiment: NCI 60-cell drug screen, one dose; settings: Non-Small Cell Lung Cancer NCI-H226, 1.00E−5 Molar
Method: as §1, §2

NCI-H460 = experiment: NCI 60-cell drug screen, one dose; settings: Non-Small Cell Lung Cancer NCI-H460, 1.00E−5 Molar
Method: as §1, §2

HCT-15 = experiment: NCI 60-cell drug screen, one dose; settings: Colon Cancer HCT-15, 1.00E−5 Molar
Method: as §1, §2

## O=C1c2ccccc2C(=O)c2c1ccc1nc(CN3CCN(c4ccccn4)CC3)[nH]c21 [CL28, 2-((4-(pyridin-2-yl)piperazin-1-yl)methyl)-1H-anthra[1,2-d]imidazole-6,11-dione]
[1]; 1 μM, read-out: Relative SEAP activity (%)
  activity at 1 µM: 91.2 ± 2.69%
[1]; 10 μM, read-out: Relative SEAP activity (%) (converted)
  activity at 10 µM: 57.1%
[1]; 100 μM, read-out: Relative SEAP activity (%) (converted)
  activity at 100 µM: 1.12%
BT-549
  Growth Percent: 102.42%
HT29
  Growth Percent: 75.79%
EKVX
  Growth Percent: 63.00%
SF-539
  Growth Percent: 104.29%
SK-MEL-28
  Growth Percent: 114.23%
HOP-62
  Growth Percent: 103.18%
COLO 205
  Growth Percent: 110.79%
MDA-MB-435
  Growth Percent: 94.85%
786-0
  Growth Percent: 91.03%
NCI-H522
  Growth Percent: 94.06%
U251
  Growth Percent: 86.28%
SK-MEL-2
  Growth Percent: 98.34%
HS 578-T
  Growth Percent: 111.04%
SN12C
  Growth Percent: 79.85%
SNB-19
  Growth Percent: 81.00%
NCI-H23
  Growth Percent: 81.65%
OVCAR-3
  Growth Percent: 88.67%
OVCAR-4
  Growth Percent: 64.57%
LOX IMVI
  Growth Percent: 82.25%
HL-60(TB)
  Growth Percent: 97.31%
TK-10
  Growth Percent: 120.65%
SK-OV-3
  Growth Percent: 93.16%
NCI-H322M
  Growth Percent: 93.77%
NCI-H226
  Growth Percent: 91.88%
NCI-H460
  Growth Percent: 79.98%
HCT-15
  Growth Percent: 86.02%

Source: US8124637B2, “Anthra [1, 2-d]imidazole-6,11-dione derivatives, preparation method and application thereof” (National Defense Medical Center, priority 2010, dated 2012)
